Holding throughout (type): cell-based
Assay [1] concerns HTT mRNA. As to the kind of experiment: Splicing RT-qPCR assay (THP), Table 2A. The following applies: Table 2A, THP; for AC50: HTT alternative junction (AJ) mRNA, read-out: HTT AJ (AC50, increase in alternative junction mRNA); for IC50: HTT canonical junction (CJ) mRNA, read-out: HTT CJ (IC50, decrease in canonical junction mRNA). In general terms: Quantitative PCR measures a nucleic acid by following its amplification.

Assay [2] deals with SH-SY5Y (human neuroblastoma) cells. The assay is described as follows: Cell viability, Cell Titer Glo 2.0 assay. The following applies: read-out: Viability SHSY5Y.3 GI50. In short, it runs like this:
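Steps: serial DMSO dilution of compound, 1:100 dilution into medium, addition to cells (0.1% DMSO final). Incubate 72 h at 37 °C, 5% CO2. Assay with CellTiter-Glo 2.0 reagent.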
For orientation: In ATP-based viability assays light output follows the ATP content of the culture.

Assay [3] concerns MYB mRNA. As to the kind of experiment: Splicing RT-qPCR assay (THP), Table 2A. The following applies: Table 2A, THP; for AC50: MYB alternative junction (AJ) mRNA, read-out: MYB AJ (AC50, increase in alternative junction mRNA); for IC50: MYB canonical junction (CJ) mRNA, read-out: MYB CJ (IC50, decrease in canonical junction mRNA).
The test system of assay [4] is HTT mRNA. As to the kind of experiment: Gene panel canonical junction qPCR assay, decrease in CJ mRNA, Table 3. Particulars: decrease in CJ mRNA levels, canonical junction qPCR, gene panel. In short, it runs like this: (§1)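 IC50 is the concentration giving 50% response in decrease of the canonical junction transcript, fitted with a 4-parameter logistic equation. Transcripts were quantified by RT-qPCR in A673 or K562 cells after 24 h exposure to compounds dosed up to 10 uM in 3-fold steps.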

The test system of assay [5] is MYB mRNA. The description is as above. Particulars: decrease in CJ mRNA levels, canonical junction qPCR, gene panel. In short, it runs like this:
as §1

In the case of `CCNC1CCN(c2ccc(C(=O)Nc3cc(CNS(C)(=O)=O)c4nn(C)cc4c3)c3nn(C)cc23)CC1` [Compound 798, 4-[4-(ethylamino)-1-piperidyl]-N-[7-(methanesulfonamidomethyl)-2-methyl-indazol-5-yl]-2-methyl-indazole-7-carboxamide], the AC50 in assay [1] and in assay [3] was 1 to 10 µM in each case. Besides, the concentration for half-maximal inhibition (IC50) in assay [1], in assay [3], in assay [4] and in assay [5] was 1 to 10 µM throughout. Besides, in assay [2], the GI50 – broadly, the concentration that inhibits growth by half – fell in the range of 1 to 10 µM.
Regarding `COc1nc2c(C(=O)Nc3cn4ccnc4c(F)c3OC)ccc(N3C[C@H](C)N[C@@H](C)C3)c2s1` [Compound 799], the AC50 (commonly the midpoint of the concentration-response curve, whichever way the signal moves) is > 10 µM in assay [1] and 1 to 10 µM in assay [3]. Besides, the IC50 – broadly, the concentration needed to halve the response being measured – in assay [1] was > 10 µM; in assay [3], 1 to 10 µM; in assay [4] it was > 10 µM; in assay [5] it was 1 to 10 µM. Further, the concentration for 50% growth inhibition (GI50) in assay [2] is 1 to 10 µM.
On to `COc1nc2c(C(=O)Nc3ccc4nn(C)cc4c3)ccc(N3C[C@H](C)N[C@@H](C)C3)c2s1` [Compound 800, 7-[(3S,5S)-3,5-dimethylpiperazin-1-yl]-2-methoxy-N-(2-methylindazol-5-yl)-1,3-benzothiazole-4-carboxamide], for which the AC50 in assay [1] is 0.1 to 1 µM; in assay [3], < 0.1 µM. Besides, the IC50 is 0.1 to 1 µM in assay [1], < 0.1 µM in assay [3], 0.1 to 1 µM in assay [4] and < 0.1 µM in assay [5]. In assay [2], the 50% growth inhibitory concentration (GI50) is < 0.1 µM.
On to `COc1nc2c(C(=O)Nc3cc(F)c4nn(C)cc4c3)ccc(N3CC4CCC(C3)N4)c2s1` [Compound 801, 7-(3,8-diazabicyclo[3.2.1]octan-3-yl)-N-(7-fluoro-2-methyl-indazol-5-yl)-2-methoxy-1,3-benzothiazole-4-carboxamide], for which the values for the AC50 in assay [1] and in assay [3] were 1 to 10 µM and < 0.1 µM, respectively. Also, the IC50 in assay [1] was 1 to 10 µM; in assay [3] it was < 0.1 µM; in assay [4] it was 1 to 10 µM; in assay [5] it was < 0.1 µM. The GI50 in assay [2] fell in the range of 0.1 to 1 µM.
For `Cc1cn2cc(NC(=O)c3ccc(N4CCC(NC5CC5)CC4)c4cn(C)nc34)nc2c(Cn2ccnn2)n1` [Compound 803], the half-maximal activity concentration (AC50) in assay [1] and in assay [3] was > 10 µM in each case. Moreover, the IC50 in assay [1], in assay [3], in assay [4] and in assay [5] was > 10 µM throughout. Also, the 50% growth inhibitory concentration (GI50) in assay [2] is 1 to 10 µM.
Regarding `Cc1cn2cc(NC(=O)c3ccc(N4CCC(NC5CC5)CC4)c4cn(C)nc34)nc2c(CNC2(C)COC2)n1` [Compound 804, 4-[4-(cyclopropylamino)-1-piperidyl]-2-methyl-N-[6-methyl-8-[[(3-methyloxetan-3-yl)amino]methyl]imidazo[1,2-a]pyrazin-2-yl]indazole-7-carboxamide], the AC50 in assay [1] and in assay [3] was > 10 µM each time. Further, the IC50 in assay [1], in assay [3], in assay [4] and in assay [5] was > 10 µM each time. Further, the GI50 in assay [2] lay within 1 to 10 µM.
Regarding `Cc1cn2cc(NC(=O)c3ccc(N4CCC(NC5CC5)CC4)c4cn(C)nc34)nc2c(CCS(=O)(=O)N(C)C)n1` [Compound 805], the AC50 in assay [1] and in assay [3] was > 10 µM in each case. Moreover, the half-inhibitory concentration (IC50) in assay [1] was > 10 µM; in assay [3], 1 to 10 µM; in assay [4], > 10 µM; in assay [5], 1 to 10 µM. For the same compound, the concentration for 50% growth inhibition (GI50) in assay [2] fell in the range of 1 to 10 µM.
On to `COc1cc2c(N3CCC(NC4CC4)CC3)ccc(C(=O)Nc3cn4cc(C)nc(CNS(C)(=O)=O)c4n3)n2n1` [Compound 806], for which the results for the half-maximal activity concentration (AC50) in assay [1] and in assay [3] were > 10 µM and 1 to 10 µM, respectively. Besides, the half-maximal inhibitory concentration (IC50) in assay [1] was > 10 µM; in assay [3], 1 to 10 µM; in assay [4] it was > 10 µM; in assay [5], 1 to 10 µM. Also, in assay [2], the GI50 lay within 1 to 10 µM.
`COC(=O)NCc1nc(C)cn2cc(NC(=O)c3ccc(N4CCC(NC5CC5)CC4)c4cn(C)nc34)nc12` [Compound 807]: the AC50 in assay [1] and in assay [3] was > 10 µM each time. In addition, the half-maximal inhibitory concentration (IC50) in assay [1], in assay [3], in assay [4] and in assay [5] was > 10 µM throughout. Moreover, in assay [2], the concentration for 50% growth inhibition (GI50) lay within 1 to 10 µM.
In the case of `COc1nc2c(C(=O)Nc3ccc4nn(C)cc4c3C(C)=O)ccc(N3C[C@H](C)N[C@@H](C)C3)c2s1` [Compound 808], the AC50 in assay [1] was 1 to 10 µM; in assay [3], > 10 µM. Besides, the IC50 in assay [1], in assay [3], in assay [4] and in assay [5] was > 10 µM throughout. In assay [2], the concentration for 50% growth inhibition (GI50) is 1 to 10 µM.
As for `COc1nc2c(C(=O)Nc3cc4cn(C)nc4nc3OC)ccc(N3C[C@H](C)N[C@@H](C)C3)c2s1` [Compound 809], the concentration at half-maximal activity (AC50) in assay [1] was > 10 µM; in assay [3] it was < 0.1 µM. Further, the IC50 in assay [1] is > 10 µM; in assay [3], 0.1 to 1 µM; in assay [4] it was > 10 µM; in assay [5], 0.1 to 1 µM. Also, the 50% growth inhibitory concentration (GI50) in assay [2] fell in the range of 0.1 to 1 µM.
In the case of `COc1nc2c(C(=O)Nc3cc(F)c4nc(CO)cn4c3)ccc(N3C[C@H](C)N[C@@H](C)C3)c2s1` [Compound 810], the concentration at half-maximal activity (AC50) in assay [1] is 0.1 to 1 µM; in assay [3], < 0.1 µM. Besides, the IC50 in assay [1] is 1 to 10 µM; in assay [3] it was < 0.1 µM; in assay [4] it was 1 to 10 µM; in assay [5], < 0.1 µM. Besides, in assay [2], the 50% growth inhibitory concentration (GI50) was < 0.1 µM.
As for `Cc1cn2cc(NC(=O)c3ccc(N4CCNCC4)c4cn(C)nc34)nc2c(CNS(C)(=O)=O)n1` [Compound 811], the AC50 is > 10 µM in assay [1] and 1 to 10 µM in assay [3]. In addition, the IC50 in assay [1], in assay [3], in assay [4] and in assay [5] was > 10 µM throughout. For the same compound, the concentration for 50% growth inhibition (GI50) in assay [2] is > 10 µM.
For `CCNCc1nc(C)cn2cc(NC(=O)c3ccc(N4CCC(NC5CC5)CC4)c4cn(C)nc34)nc12` [Compound 812], the concentration at half-maximal activity (AC50) in assay [1] and in assay [3] was > 10 µM throughout. For the same compound, the IC50 in assay [1], in assay [3], in assay [4] and in assay [5] was > 10 µM each time. Besides, the GI50 in assay [2] fell in the range of 1 to 10 µM.
As to `Cn1cc2cc(NC(=O)c3ccc(N4CCC(NC5CC5)CC4)c4cn(C)nc34)cc(CN)c2n1` [Compound 813, N-[7-(aminomethyl)-2-methyl-indazol-5-yl]-4-[4-(cyclopropylamino)-1-piperidyl]-2-methyl-indazole-7-carboxamide], the half-maximal activity concentration (AC50) in assay [1] is > 10 µM; in assay [3], 1 to 10 µM. For the same compound, the IC50 in assay [1] is > 10 µM; in assay [3] it was 1 to 10 µM; in assay [4], > 10 µM; in assay [5], 1 to 10 µM. Further, the concentration for 50% growth inhibition (GI50) in assay [2] is > 10 µM.
For the compound `COC(=O)NCc1cc(NC(=O)c2ccc(N3CCC(NC4CC4)CC3)c3cn(C)nc23)cc2cn(C)nc12` [Compound 814], the half-maximal activity concentration (AC50) is > 10 µM in assay [1] and 1 to 10 µM in assay [3]. The concentration for half-maximal inhibition (IC50) in assay [1] is > 10 µM; in assay [3], 0.1 to 1 µM; in assay [4] it was > 10 µM; in assay [5], 0.1 to 1 µM. In addition, the GI50 in assay [2] was 1 to 10 µM.
In the case of `Cn1cc2cc(NC(=O)c3ccc(N4CCC(N(C(=O)OC(C)(C)C)C5CC5)CC4)c4cn(C)nc34)cc(CN)c2n1` [Compound 815], the half-maximal activity concentration (AC50) in assay [1] and in assay [3] was > 10 µM in each case. Also, the IC50 in assay [1], in assay [3], in assay [4] and in assay [5] was > 10 µM in each case. Also, the GI50 in assay [2] was in the range of 1 to 10 µM.
Take `Cc1cn2cc(NC(=O)c3ccc(N4CCC(NC5CC5)CC4)c4cn(C)nc34)cc(CNS(C)(=O)=O)c2n1` [Compound 816, 4-[4-(cyclopropylamino)-1-piperidyl]-N-[8-(methanesulfonamidomethyl)-2-methyl-imidazo[1,2-a]pyridin-6-yl]-2-methyl-indazole-7-carboxamide]: the AC50 in assay [1] is > 10 µM; in assay [3] it was 1 to 10 µM. Also, the 50% inhibitory concentration (IC50) in assay [1] is > 10 µM; in assay [3], 1 to 10 µM; in assay [4], > 10 µM; in assay [5] it was 1 to 10 µM. Moreover, the concentration for 50% growth inhibition (GI50) in assay [2] was > 10 µM.
Turning to `CCNC1CCN(c2ccc(C(=O)Nc3cc(CNS(C)(=O)=O)c4nc(C)cn4c3)c3nn(C)cc23)CC1` [Compound 817, 4-[4-(ethylamino)-1-piperidyl]-N-[8-(methanesulfonamidomethyl)-2-methyl-imidazo[1,2-a]pyridin-6-yl]-2-methyl-indazole-7-carboxamide], the concentration at half-maximal activity (AC50) in assay [1] was > 10 µM; in assay [3], 1 to 10 µM. For the same compound, the half-maximal inhibitory concentration (IC50) in assay [1] was > 10 µM; in assay [3], 1 to 10 µM; in assay [4] it was > 10 µM; in assay [5], 1 to 10 µM. Further, the GI50 in assay [2] is > 10 µM.

Values taken from US20260285853A1, “COMPOUNDS AND METHODS FOR MODULATING SPLICING” (REMIX THERAPEUTICS INC., priority 2023, published 2026).
